For one assay, the target named is T1, TRPM5 (Homo sapiens, UniProt Q9NZQ8).
T1 construct: expressed in transfected cells
T1 sequence (Q9NZQ8 1-1165): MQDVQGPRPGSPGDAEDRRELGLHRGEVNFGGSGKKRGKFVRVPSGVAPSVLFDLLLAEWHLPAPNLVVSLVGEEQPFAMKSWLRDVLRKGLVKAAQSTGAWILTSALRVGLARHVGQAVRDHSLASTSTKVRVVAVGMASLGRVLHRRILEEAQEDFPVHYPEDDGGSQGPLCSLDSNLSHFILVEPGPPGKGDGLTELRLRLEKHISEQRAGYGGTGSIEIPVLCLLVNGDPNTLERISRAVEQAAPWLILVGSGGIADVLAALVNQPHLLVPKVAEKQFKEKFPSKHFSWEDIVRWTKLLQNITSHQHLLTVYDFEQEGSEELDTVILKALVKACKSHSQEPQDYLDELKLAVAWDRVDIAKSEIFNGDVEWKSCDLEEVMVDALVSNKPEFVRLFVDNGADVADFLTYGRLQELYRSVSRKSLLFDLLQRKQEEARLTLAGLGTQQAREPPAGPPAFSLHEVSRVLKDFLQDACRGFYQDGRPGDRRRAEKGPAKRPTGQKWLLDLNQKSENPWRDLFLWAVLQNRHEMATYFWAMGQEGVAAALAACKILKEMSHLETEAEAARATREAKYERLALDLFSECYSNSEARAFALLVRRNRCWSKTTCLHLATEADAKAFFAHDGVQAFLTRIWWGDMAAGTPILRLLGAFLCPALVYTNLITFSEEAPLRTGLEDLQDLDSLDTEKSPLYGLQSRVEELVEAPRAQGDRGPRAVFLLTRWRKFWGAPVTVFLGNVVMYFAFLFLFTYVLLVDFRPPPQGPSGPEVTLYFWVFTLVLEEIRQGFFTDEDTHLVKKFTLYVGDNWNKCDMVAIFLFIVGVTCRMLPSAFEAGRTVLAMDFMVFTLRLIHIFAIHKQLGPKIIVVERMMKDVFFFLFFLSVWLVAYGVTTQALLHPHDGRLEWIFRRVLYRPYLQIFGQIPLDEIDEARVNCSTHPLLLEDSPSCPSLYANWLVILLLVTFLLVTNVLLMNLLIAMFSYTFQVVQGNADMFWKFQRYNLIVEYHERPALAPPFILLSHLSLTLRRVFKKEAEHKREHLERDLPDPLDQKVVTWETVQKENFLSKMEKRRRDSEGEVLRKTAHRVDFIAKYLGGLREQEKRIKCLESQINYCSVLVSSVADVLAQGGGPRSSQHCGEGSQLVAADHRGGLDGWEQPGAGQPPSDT
Description: In vitro membrane potential dye assay (FLIPR) on HEK293T cells stably overexpressing TRPM5. Format: cell-based. Conditions: for TRPM5 screening result: single dose, qualitative. The source says:
(§1) Pure phytochemicals were submitted to in vitro assays with a platform of twenty cloned receptors of the bitter taste TAS2R family and four receptors of the TRP family related to the perception of taste and somatosensory sensations. All experiments have been repeated three times, each time with four replicates. […] For simplicity, only those bitter taste receptors having reproducible positive assay, namely TASR10, 14 and 49, are reported (Table 1).
(§2) For those compounds showing activity on one or more receptor(s), the concentration/response curves were plotted and the EC50 calculated.
(§3) For the biological tests, several compounds were purchased as references from different suppliers (Sigma Aldrich, ChromaDex, Irvine, CA, USA, and Tocris Bioscience, Bristol, UK) and dissolved in assay buffer (130 mM NaCl, 5 mM KCl, 1 mM MgCl2, 2 mM CaCl2, 5 mM NaHCO3 and 20 mM HEPES, pH 7.4) or in a mixture of assay buffer and DMSO, never exceeding a final DMSO concentration of 0.5% (v/v) to avoid toxic effects and possible artefacts on transfected cells.
(§4) All human TAS2R and G15Gi1 cDNAs were produced as reported in Bassoli et al. cDNAs for human TRPA1-M5-M8-V1-V4 were cloned into a pcDNA6 expression vector (Invitrogen-Thermo Fisher, Waltham, MA, USA).
(§5) All experiments were performed using HEK293T cells (ATCC).
(§6) For TRP platform experiments, cells were cultured in MEM/EBSS medium (ECB2071L EuroClone, Milan, Italy) plus 10% (v/v) fetal bovine serum (FBS) (26400-044 Gibco, Karlsruhe, Germany) and 1% (v/v) Pen/Strep 10K/10K stock (17-602E Lonza, Basel, Switzerland). Stable cell lines were generated overexpressing each TRP channel, and clones were selected with 500 µg/mL of G418 (ant-gn-5 Invivogen, Karlsruhe, Germany). To analyze TRP receptor responses, cells were plated at a concentration of 20,000 cells/well in 384-well plates (GR-4330 Twin Helix srl, Milan, Italy). Cellular responses were measured 24 h after seeding.
(§7) For TRPM5 experiments, cells were loaded 24 h after seeding with a Membrane Potential Dye (R8034 MDC) solution in assay buffer according to the manufacturer’s instructions and incubated at 37 °C for 1 h before acquisition. All experiments were performed using a fluorometric imaging plate reader (FLIPR^TETRA, Molecular Devices equipped with ICCD Camera from Stanford Photonics, INC, (Palo Alto, CA, USA) and kinetics were visualized with Molecular Devices’ Screenworks 3.0 (Sunnyvale, CA, USA).
(§8) For the calculation of concentration-response curves, responses were calculated as the difference between maximal and minimal relative fluorescence unit (RFU) values in a selected time window (11–60 s) and were normalized to the basal well fluorescence (Time Point 1, before compound injection) in order to compensate for differences in cell density (∆F/F0). All of the experiments have been repeated three times, each time with four replicates. All of the results are averages of at least four replicates. Raw data are available in Supplementary Material, Figures S3–S6.

In another assay the target is T2, TRPA1 (Homo sapiens, UniProt O75762).
T2 construct: expressed in transfected cells
T2 sequence (O75762 whole entry): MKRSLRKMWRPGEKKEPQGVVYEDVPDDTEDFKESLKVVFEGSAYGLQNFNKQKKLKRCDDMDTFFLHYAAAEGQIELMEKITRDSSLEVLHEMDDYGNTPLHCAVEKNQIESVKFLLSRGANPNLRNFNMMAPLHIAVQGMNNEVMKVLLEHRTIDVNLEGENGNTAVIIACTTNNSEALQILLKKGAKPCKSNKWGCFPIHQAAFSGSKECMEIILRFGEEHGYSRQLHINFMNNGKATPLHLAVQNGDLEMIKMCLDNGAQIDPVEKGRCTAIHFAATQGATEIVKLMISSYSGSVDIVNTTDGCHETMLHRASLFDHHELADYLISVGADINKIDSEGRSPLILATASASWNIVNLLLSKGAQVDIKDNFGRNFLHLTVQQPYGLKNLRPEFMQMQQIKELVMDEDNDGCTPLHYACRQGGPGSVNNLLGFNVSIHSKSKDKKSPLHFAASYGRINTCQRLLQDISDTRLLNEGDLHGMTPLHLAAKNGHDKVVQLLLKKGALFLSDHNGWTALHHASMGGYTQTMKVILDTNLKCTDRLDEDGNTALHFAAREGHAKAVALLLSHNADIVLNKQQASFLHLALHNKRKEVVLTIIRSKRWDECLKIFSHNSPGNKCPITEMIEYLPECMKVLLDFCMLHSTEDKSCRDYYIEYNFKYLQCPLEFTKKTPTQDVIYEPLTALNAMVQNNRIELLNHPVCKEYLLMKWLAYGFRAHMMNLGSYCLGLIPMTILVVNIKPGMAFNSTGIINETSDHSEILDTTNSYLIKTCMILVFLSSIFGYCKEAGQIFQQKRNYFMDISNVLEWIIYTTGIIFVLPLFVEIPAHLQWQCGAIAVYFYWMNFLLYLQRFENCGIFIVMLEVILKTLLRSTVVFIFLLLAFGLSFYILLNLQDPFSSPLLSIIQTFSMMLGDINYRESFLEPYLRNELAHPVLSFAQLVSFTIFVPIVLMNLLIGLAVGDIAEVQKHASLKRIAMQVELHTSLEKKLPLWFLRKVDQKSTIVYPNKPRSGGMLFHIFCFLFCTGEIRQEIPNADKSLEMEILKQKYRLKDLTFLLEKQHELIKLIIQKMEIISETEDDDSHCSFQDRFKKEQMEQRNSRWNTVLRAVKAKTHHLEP
Description: In vitro Fluo8-NW calcium assay (FLIPR) on HEK293T cells stably overexpressing TRPA1. It is filed as cell-based. Particulars: for TRPA1 screening result: single dose, qualitative.
Source text: Pure phytochemicals were submitted to in vitro assays with a platform of twenty cloned receptors of the bitter taste TAS2R family and four receptors of the TRP family related to the perception of taste and somatosensory sensations. All experiments have been repeated three times, each time with four replicates.
as §2, §3, §4, §5, §6
For TRPA1-M8-V1-V4 experiments, a solution of Fluo8-NW calcium-sensitive dye (36316 AAT BioQuest, Sunnyvale, CA, USA) was prepared using the assaybuffer and diluting the kit components 1:2 according to the manufacturer’s instructions. Twenty-four hours after seeding, cells were incubated one hour at RT, loaded with 40 µL of Fluo8-NW solution for each well and incubated again for one hour at RT before data acquisition.
as §7, §8

The subject of assay [1] is twenty TAS2R bitter taste receptors. The assay can be described thus: In vitro screening on the platform of twenty cloned TAS2R bitter taste receptors. Conditions: at the tested concentration. Format: cell-based, human.
Source text: as §1, §3, §4, §5
For the bitter platform experiments, cells were cultured, transfected and analyzed as previously described.
For the bitter platform experiments, data analyses were performed as previously described.
as §8

In general, EC50 refers to the concentration that produces a half-maximal response.

Where two headings read alike, the source gives them in different places.

As to `C[C@@H]1O[C@@H](OC[C@H]2O[C@@H](Oc3c(-c4ccc(O)c(O)c4)oc4cc(O)cc(O)c4c3=O)[C@H](O)[C@@H](O)[C@@H]2O)[C@H](O)[C@H](O)[C@H]1O` [Compound 1, rutin], the TRPM5 screening result on TRPM5 is “−”. Further, the TRPA1 screening result at TRPA1 was “−”. The “Response on the twenty TAS2R receptors (in words)” value (“Response” below) in assay [1] is “inactive”.
For `C=CC(C)(C)c1cc2cc3c(cc2oc1=O)OC(C(C)(C)OC(C)=O)C3` (centres unmarked) [Compound 2, rutamarin], on TRPM5, the “Activity on TRPM5 (in words)” value is “activated” and the TRPM5 screening result was “+”. In addition, at TRPM5 (concentration/response curve, values with ≥ estimated), the EC50 is ≥ 26.7 µM. For the same molecule, on TRPA1, the “Activity on TRPA1 (in words)” value is “did not activate” and the TRPA1 screening result is reported as “−”.
Regarding `COc1c2ccoc2cc2oc(=O)ccc12` [Compound 3, bergapten], at TRPM5, the TRPM5 screening result is “−”. Moreover, the TRPA1 screening result on TRPA1 was “−”.
Turning to `COc1c2occc2cc2ccc(=O)oc12` [Compound 4, xanthotoxin], the TRPM5 screening result on TRPM5 is on record as “−”. At TRPA1, the “Activity on TRPA1 (in words)” value is on record as “agonists” and the TRPA1 screening result is “+”. Further, the EC50 at TRPA1 (concentration/response curve, values with ≥ estimated, n.d. = non detectable, read-out: EC50 TRPA1) is ≥ 19.7 µM.
In the case of `COc1c2ccoc2c(OC)c2oc(=O)ccc12` [Compound 5, isopimpinellin], at TRPM5, the TRPM5 screening result was “−”. At TRPA1, the “Activity on TRPA1 (in words)” value is reported as “agonists”, the EC50 was ≥ 22.8 µM and the TRPA1 screening result is recorded as “+”.
`COc1cc2nc3occc3c(OC)c2cc1OC` [Compound 7, kokusaginin]: the TRPM5 screening result at TRPM5 is given as “−”. On TRPA1, the TRPA1 screening result is recorded as “−”. The “Response” value in assay [1] was “did not respond”.
Consider `COc1ccc2c(OC)c3ccoc3nc2c1OC` [Compound 8, skimmianine], for which the TRPM5 screening result on TRPM5 is listed as “−”. Moreover, on TRPA1, the TRPA1 screening result was “−”.
In the case of `CCCCCCCCCC(C)=O` [Compound 9, 2-undecanone], on TRPM5, the TRPM5 screening result is listed as “−”. For the same molecule, the TRPA1 screening result on TRPA1 was “−”. Besides, the “Response” value in assay [1] was “inactive”.
`CCCCCCCC(C)=O` [Compound 10, 2-nonanone]: the TRPM5 screening result at TRPM5 is “−”. In addition, the TRPA1 screening result at TRPA1 is “−”. In addition, the “Response” value in assay [1] was “inactive”.
